Where two headings read alike, the source gives them in different places.
Columns and labels:
[1] = system: Ba/F3-FGFR1-transfected cells in the presence of 10 ng/ml murine IL3; assay: Ba/F3-FGFR1 (plus IL3) cellular proliferation counterscreen, Alamar Blue; assay type: cell-based; settings: Mus musculus
Outline: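 24 h cmpd exposure, 37 °C/5% CO2; phenol red-free RPMI-1640, 10% FBS; 20000 cells/well (384) or 10000 cells/well (96); Alamar Blue (0.15 mM resazurin) 4 h; RFU ex 540/em 590.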

[2] = system: Ba/F3-KDR-transfected cells in the presence of 10 ng/ml murine IL3; assay: Ba/F3-KDR (plus IL3) cellular proliferation counterscreen, Alamar Blue; assay type: cell-based; settings: Mus musculus, plus 10 ng/ml murine IL3
Outline: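 Fluorescence (ex 540, em 590 nm) from resazurin reduction, read after 4 h with Alamar Blue, reports viability of Ba/F3-KDR cells after 24 h of compound treatment at 37 °C. Counterscreen wells also contained 10 ng/ml murine IL3.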

[3] = system: Ba/F3-Flt3-transfected cells in the presence of 10 ng/ml murine IL3; assay: Ba/F3-Flt3 (plus IL3) cellular proliferation counterscreen, Alamar Blue; assay type: cell-based; settings: Mus musculus; plus 10 ng/ml murine IL3; read-out: BAF3-FLT3 (PLUS IL3) 96 well pIC50 (converted)
FGFR1 (h) = FGFR1 (h) (Homo sapiens, UniProt P11362); assay: FGFR1 (enzymatic assay), TR-FRET; assay type: biochemical; settings: read-out: FGFR 1 pIC50 (converted)
Protocol: (§1) In a final reaction volume of 30 μL, FGFR1 (h) (25 ng/ml) was incubated with 50 mM HEPES pH 7.5, 6 mM MnCl2, 1 mM DTT, 0.1 mM Na3VO4, 0.01% Triton-X-100, 500 nM Btn-Flt3 and 5 μM ATP in the presence of compound (1% DMSO final). […] Time-Resolved Fluorescence Resonance Energy Transfer (TR-FRET) signal (ex340 nm. Em 620 nm, em 655 nm) was measured afterwards and results are expressed in RFU (Relative Fluorescence Units).

FGFR2 (h) = FGFR2 (h) (Homo sapiens, UniProt P21802); assay: FGFR2 (enzymatic assay), TR-FRET; assay type: biochemical; settings: read-out: FGFR 2 pIC50 (converted)
Protocol: as §1, with “μL, FGFR2” for “μL, FGFR1”, “(h) (150” for “(h) (25”, “and 0.4” for “and 5”, “in” for “in RFU”

FGFR3 (h) = FGFR3 (h) (Homo sapiens, UniProt P22607); assay: FGFR3 (enzymatic assay), TR-FRET; assay type: biochemical; settings: read-out: FGFR 3 pIC50 (converted)
Protocol: as §1, with “μL, FGFR3” for “μL, FGFR1”, “(h) (40” for “(h) (25”, “and 25” for “and 5”

[4] = plus IL3, 96 well, read-out: BAF3-FGFR 1 (PLUS IL3) 96 well pIC50 (converted)
[5] = plus IL3, 384 well, read-out: BAF3-FGFR 1 (PLUS IL3) 384 well pIC50 (converted)
[6] = read-out: BAF3-KDR (PLUS IL3) 96 well pIC50 (converted)
[7] = read-out: BAF3-KDR (PLUS IL3) 384 well pIC50 (converted)

FGFR2 (h), sequence (P21802 22-821): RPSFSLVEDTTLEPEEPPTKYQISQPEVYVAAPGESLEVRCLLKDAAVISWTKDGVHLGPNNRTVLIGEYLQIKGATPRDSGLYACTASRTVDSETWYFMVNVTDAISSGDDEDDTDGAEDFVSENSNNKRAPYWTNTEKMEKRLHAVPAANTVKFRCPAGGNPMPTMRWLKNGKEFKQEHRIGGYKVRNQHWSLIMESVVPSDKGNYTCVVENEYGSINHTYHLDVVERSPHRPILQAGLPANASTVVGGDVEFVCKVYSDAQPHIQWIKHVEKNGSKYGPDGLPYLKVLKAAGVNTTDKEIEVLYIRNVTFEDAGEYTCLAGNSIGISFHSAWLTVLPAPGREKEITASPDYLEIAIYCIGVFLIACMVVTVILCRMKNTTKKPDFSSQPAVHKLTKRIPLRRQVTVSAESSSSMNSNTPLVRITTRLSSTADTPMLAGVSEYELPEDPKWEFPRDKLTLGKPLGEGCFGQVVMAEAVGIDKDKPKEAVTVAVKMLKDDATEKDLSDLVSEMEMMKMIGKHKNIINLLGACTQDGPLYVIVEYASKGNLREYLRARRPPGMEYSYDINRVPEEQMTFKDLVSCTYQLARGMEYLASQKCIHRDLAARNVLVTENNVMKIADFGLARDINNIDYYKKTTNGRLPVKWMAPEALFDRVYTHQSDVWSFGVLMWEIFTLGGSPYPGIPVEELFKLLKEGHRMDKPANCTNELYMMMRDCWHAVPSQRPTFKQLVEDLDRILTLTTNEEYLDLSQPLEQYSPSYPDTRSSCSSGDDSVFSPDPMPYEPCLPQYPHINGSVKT
FGFR3 (h), sequence (P22607 23-806): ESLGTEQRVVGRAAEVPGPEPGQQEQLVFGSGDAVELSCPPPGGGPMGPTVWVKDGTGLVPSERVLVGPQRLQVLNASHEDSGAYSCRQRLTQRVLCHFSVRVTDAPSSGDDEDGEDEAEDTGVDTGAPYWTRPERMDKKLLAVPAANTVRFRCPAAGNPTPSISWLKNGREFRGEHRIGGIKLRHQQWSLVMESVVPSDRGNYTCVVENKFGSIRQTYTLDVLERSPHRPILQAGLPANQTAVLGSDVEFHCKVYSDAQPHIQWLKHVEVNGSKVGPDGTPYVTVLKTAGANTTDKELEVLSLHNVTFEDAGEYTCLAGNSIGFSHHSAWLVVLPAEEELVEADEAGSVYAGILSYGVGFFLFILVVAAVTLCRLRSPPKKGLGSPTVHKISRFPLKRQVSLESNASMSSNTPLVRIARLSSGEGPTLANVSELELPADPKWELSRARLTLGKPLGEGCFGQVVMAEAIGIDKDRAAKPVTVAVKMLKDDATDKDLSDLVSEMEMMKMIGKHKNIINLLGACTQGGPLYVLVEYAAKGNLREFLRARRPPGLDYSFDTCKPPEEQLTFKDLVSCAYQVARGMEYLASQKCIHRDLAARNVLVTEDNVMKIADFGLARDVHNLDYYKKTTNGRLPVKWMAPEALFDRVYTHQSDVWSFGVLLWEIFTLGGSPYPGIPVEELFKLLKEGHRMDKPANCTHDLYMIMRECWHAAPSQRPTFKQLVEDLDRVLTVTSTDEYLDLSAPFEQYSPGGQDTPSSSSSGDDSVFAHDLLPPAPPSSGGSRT
FGFR1 (h), sequence (P11362 22-822): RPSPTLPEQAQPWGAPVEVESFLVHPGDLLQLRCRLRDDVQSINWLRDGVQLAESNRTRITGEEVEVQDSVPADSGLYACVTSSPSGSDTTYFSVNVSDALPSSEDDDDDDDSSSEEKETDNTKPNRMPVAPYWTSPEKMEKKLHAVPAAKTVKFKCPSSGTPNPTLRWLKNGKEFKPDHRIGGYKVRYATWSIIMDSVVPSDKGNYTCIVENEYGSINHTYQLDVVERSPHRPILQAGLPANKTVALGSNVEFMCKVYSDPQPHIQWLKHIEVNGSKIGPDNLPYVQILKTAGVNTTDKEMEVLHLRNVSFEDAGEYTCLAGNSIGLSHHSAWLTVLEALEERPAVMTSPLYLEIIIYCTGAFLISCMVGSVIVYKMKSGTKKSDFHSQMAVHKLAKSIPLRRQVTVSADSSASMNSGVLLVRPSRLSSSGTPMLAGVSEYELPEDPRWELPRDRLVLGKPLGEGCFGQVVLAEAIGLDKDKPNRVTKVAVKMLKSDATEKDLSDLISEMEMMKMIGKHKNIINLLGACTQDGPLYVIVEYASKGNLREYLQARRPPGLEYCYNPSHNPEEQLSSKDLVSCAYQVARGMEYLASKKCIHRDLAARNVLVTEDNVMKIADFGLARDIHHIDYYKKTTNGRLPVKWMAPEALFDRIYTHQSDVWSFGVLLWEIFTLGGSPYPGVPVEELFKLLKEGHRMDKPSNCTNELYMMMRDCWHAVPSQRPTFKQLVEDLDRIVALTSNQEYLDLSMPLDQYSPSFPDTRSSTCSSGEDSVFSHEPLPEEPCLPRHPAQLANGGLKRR

Row | IC50 (FGFR1 (h)) [µM] | IC50 (FGFR2 (h)) [µM] | IC50 (FGFR3 (h)) [µM] | Compound | IC50 [1, 4] [µM] | IC50 [1, 5] [µM] | IC50 [2, 6] [µM] | IC50 [2, 7] [µM] | IC50 [3] [µM]
1 | > 1 | > 1 | > 1 | COc1cc(OC)cc(N(CC2CC2)c2ccc3ncc(-c4nnnn4C)nc3c2)c1 [Compound 83] | > 10 | > 10 | > 10 | > 10 | > 10
2 | > 1 | > 1 | > 1 | COc1cc(OC)cc(N(CC2CC2)c2ccc3ncc(-n4nccc4C)nc3c2)c1 [Compound 62] | > 10 | > 10 | – | – | > 10
3 | 0.759 | ~0.708 | 0.447 | COc1cc(OC)cc(N(CC2CC2)c2ccc3ncc(-n4cncn4)nc3c2)c1 [Compound 50] | > 10 | > 10 | > 10 | > 10 | > 10
4 | 0.0204 | 0.0251 | 0.00955 | COc1cc(OC)cc(N(CC2CC2)c2ccc3ncc(-c4cn(CCN5CCOCC5)nn4)nc3c2)c1 [Compound 24] | > 10 | > 10 | – | – | > 10
5 | 0.417 | 0.575 | 0.479 | COc1cc(OC)cc(N(CC2CC2)c2ccc3ncc(-n4ccnc4C)nc3c2)c1 [Compound 32] | > 10 | > 10 | – | – | > 10
6 | 0.0372 | 0.0479 | 0.0309 | COc1cc(OC)cc(N(CC2CC2)c2ccc3ncc(-c4cnco4)nc3c2)c1 [Compound 55] | > 10 | > 10 | – | – | > 10
7 | > 1 | > 1 | > 1 | CCOC(=O)c1ncn(-c2cnc3ccc(N(CC4CC4)c4cc(OC)cc(OC)c4)cc3n2)c1C [Compound 65] | > 10 | > 10 | – | – | > 10
8 | 0.0794 | 0.166 | 0.0617 | COc1cc(OC)cc(N(CC2CC2)c2ccc3ncc(-c4cn[nH]n4)nc3c2)c1 [Compound 69] | > 10 | > 10 | – | – | > 10
9 | 0.501 | 0.427 | 0.214 | COc1cc(OC)cc(N(CC2CC2)c2ccc3ncc(C#Cc4ccncc4)nc3c2)c1 [Compound 23] | 5.89 | > 10 | – | – | 5.62

More lines, now with the values behind:

Row | Compound | IC50 (FGFR1 (h)) [µM] | IC50 (FGFR2 (h)) [µM] | IC50 (FGFR3 (h)) [µM] | IC50 [1, 4] [µM] | IC50 [1, 5] [µM] | IC50 [2, 6] [µM] | IC50 [2, 7] [µM] | IC50 [3] [µM]
10 | COc1cc(OC)cc(N(CC2CC2)c2ccc3ncc(-c4cnn(C)n4)nc3c2)c1 [Compound 70] | – | – | – | > 10 | > 10 | > 10 | > 10 | > 10
11 | COc1cc(OC)cc(N(CC2CC2)c2ccc3ncc(-c4cn(CCO)nn4)nc3c2)c1 [Compound 40] | 0.0776 | 0.0891 | 0.049 | > 10 | > 10 | > 10 | > 10 | > 10
12 | COc1cc(OC)cc(N(CC2CC2)c2ccc3ncc(-c4cn(C)nn4)nc3c2)c1 [Compound 71] | – | – | – | > 10 | > 10 | > 10 | > 10 | > 10
13 | COc1cc(OC)cc(N(CC2CC2)c2ccc3ncc(Nc4cnn(C)c4)nc3c2)c1 [Compound 61] | – | – | – | 6.92 | > 10 | – | > 10 | 6.76
14 | COc1cc(OC)cc(N(CC2CC2)c2ccc3ncc(-n4cnc(C)c4)nc3c2)c1 [Compound 30] | 0.0513 | 0.0676 | 0.0269 | > 10 | > 10 | > 10 | > 10 | > 10
15 | COc1cc(OC)cc(N(CC2CC2)c2ccc3ncc(-c4cnnn4C)nc3c2)c1 [Compound 72] | 0.537 | 0.479 | 0.389 | 7.94 | > 10 | – | – | > 10
16 | COc1cc(OC)cc(N(CC2CC2)c2ccc3ncc(-c4ccnn4C)nc3c2)c1 [Compound 18] | – | – | – | > 10 | > 10 | – | > 10 | > 10
17 | COc1cc(OC)cc(N(CC2CC2)c2ccc3ncc(-c4ccn(CCO)c4)nc3c2)c1 [Compound 56] | – | – | – | > 10 | > 10 | > 10 | > 10 | > 10

— patent US10052320B2, “Substituted quinoxalines as FGFR kinase inhibitors” (ASTEX THERAPEUTICS LIMITED, priority 2011, dated 2018)
